The source of these data is patent publication US6455589B1, “Primary N-hydroxylamines” (The Regents of the University of California, priority 1999, dated 2002).

“Also recorded” adds a separate entry of the source. Where two headings read alike, the source gives them in different places.

In series [1] the test system is IMR90 cells. The series can be described thus: Replicative life span of IMR90 cells (gain in PDLs, delay of senescence). Format: cell-based, human. The note with it: 25 μM.
In series [2] the test system is IMR90 cells. The description is as above. Format: cell-based, human. Conditions: for Toxicity to the cells: high concentrations (100 μM); for Gain in PDLs: continuous cultivation, compared to control untreated cells. The procedure:
Cultivating IMR90 cells in culture—Normal human […] fibroblasts (IMR90) cells were obtained from the Coriell Institute for Medical Research at a population doubling level (PDL) of 10.85. The PDLs were calculated as log2(D/Do), where D and Do are defined as the density of cells at the time of harvesting and seeding, respectively. Stock cultures were grown in 100 mm Corning tissue culture dishes containing 10 ml of Dulbecco's modified Eagle's medium (DMEM) supplemented with 10% (V/V) fetal bovine serum (Hyclone). Stock cultures were split once a week when near confluence. Cells were harvested by trypsinization for 5 min at 37° C., immediately collected in 5 ml complete DMEM, washed once with 5 ml complete DMEM and incubated for 10-15 min at 37° C. to allow the cells to recover.
To test the effect of hydroxylamines on replicative life span, IMR90 cells were seeded at 0.5×106 per 100 mm dish. N-hydroxylamines (N-t-butyl hydroxylamine, N-benzyl hydroxylamine, N-methyl hydroxyl- amine) were added either individually (final concentration 10 or 100 μM) or in a combination of all three N-hydroxylamines (30 μM each). The cultures were split after 7 days and seeded with fresh medium supplemented with the hydroxylamines described above. In other experiments the medium of the cultures was replaced after 3 days of seeding with fresh medium and with fresh N-hydroxylamines, the split was done as usual after 7 days from seeding. The effect of PBN on life span was tested as in (5).

For series [3], the target named is T1, Aβ(1-40) (Homo sapiens, UniProt P05067).
T1 construct: particularly the aggregated fibrils of synthetic Aβ(1-40)
The series is described as follows: Inhibition of Aβ(1-40) beta-pleated sheet formation (Thioflavin T fluorescence). Format: biochemical. The note with it: compound 10 μM, 12 hours. An excerpt:
The deposition of amyloid β-peptide (Aβ) is associated with the development of Alzheimer's disease. See, for example, G. G. Glenner et al. (1984) Biochem. Biophys. Res. Commun., 120:885-890; and R. E. Tanzi (1989) Ann. Med., 21:91-94. Accordingly, compounds which effectively disrupt the formation of Aβ(1-40) or Aβ(1-42) beta-pleated sheets are potentially useful for preventing and/or reversing such amyloid deposits. Thioflavin T (ThT) is known to rapidly associate with beta-pleated sheets, particularly the aggregated fibrils of synthetic Aβ(1-40). This association gives rise to a new excitation maximum at 440 nm and to enhanced emission at 490 nm.
The experiments are performed using a CytoFluor II fluorescence plate reader having the following parameters: Filters (Excitation and Emission)=440 nm/20 and 490 nm/40; Gain=75; Cycle to Cycle Time=30 min; Run Time=720 min (24 cycles) or dependent on exp. design; Plate=96 well. […] The fluorescence measurement begins when the Aβ(1-40) is added and continues for a total of 12 hours. The percent inhibition of beta-pleated sheet formation is calculated from the relative fluorescence unit difference between aggregation in the presence and in the absence of the test compounds.

The subject of series [4] is IMR90 cells. The series is described as follows: H2O2-induced senescence of IMR90 cells. Format: cell-based, human. Conditions: 20 μM or 30 μM H2O2 once a week, cells continuously treated. The procedure: To determine the effect of H2O2 on the replicative life span, cells were first seeded with fresh medium with or without N-hydroxylamines (see above) for a week. Next, cells grown with or without N-hydroxylamines were each split into two additional groups and then either; 1) treated with 20 or 30 μM H2O2 or 2) without treatment with H2O2.

In series [5] the test system is IMR90 cells. The series is described as follows: Cellular levels of GSH and GSSG in IMR90 cells (HPLC-EC). Format: cell-based, human. The note with it: for GSH / GSH/GSSG / GSSG: 100 μM, 26-50 PDLs; for Increase of the GSH/GSSG ratio: vs control. The protocol:
Measurement of cellular levels of GSH and GSSG in IMR90 cells—Cultivated IMR90 cells (≈3×10^6) were washed once in cold PBS and resuspended in 200 μl of ice cold MSA (0.2M MSA/0.5mM diethylenetriamine pentaacetic acid, DTPA) and allowed to stand for 10 min at room temperature. Denatured proteins were removed by centrifugation and the supernatant was filtered with 30,000 D MW cut-off Ultrafree filters (Millipore) before injection. Fifty microliters were injected and separated on an HPLC column (3-μm 0.46×15cm Suplecosil LC18-DB, Supelco, Bellefonte, Pa.) with a flow rate of 1 ml/min using a mobile phase consisting of 25mM NaH2PO4, 5 mM octane sulfonic acid, and 2% acetonitrile, adjusted to pH 2.7 with phosphoric acid (26). An ESA model 5100A Coulochem detector, 5020 guard cell and model 5010 analytical cell combination was used for analysis. Oxidation potentials of 900 mV, 400 mV and 880 mV were used for guard cell, electrode 1 and 2, respectively. Full-scale output was 10 μA and peak areas were compared using commercial GSH and GSSG as standards.

The subject of series [6] is IMR90 cells. The series can be described thus: Senescence-dependent change in mitochondria of IMR90 cells, Rho123 accumulation by FACS. Format: cell-based, human. Conditions: for Rho123, AFU/PDL (rate of Rho123 accumulation per PDL): 100 μM, linear regression 26-50 PDLs; for Decrease of the rate of Rho123 accumulation as a function of senescence: vs control. The protocol: (§1) Analysis of the age-dependent changes in the steady state level of oxidants and mitochondrial membrane potential in IMR90 cells by FACS—[…] were trypsinized and resuspended into complete DMEM. For each condition, two tubes were prepared with 1×10^6 cells each. Tubes were then spun at 250 g for 10 min at room temperature and supernatant was replaced with 1 ml of Hanks Balanced Salt Solution (HBSS) without Ca^++ or Mg^++. Rho123 (20 μl of 525 μM stock; 10.5 μM final concentration) was added to one tube and DCFH (20 μl of 1.25 mM stock; 25 μM final concentration) was added to the other tube. The cells were then incubated in the dark in a water bath at 37° C. for 30 min followed by cell resuspension and centrifugation at 250 g for 10 min at room temperature. The supernatant (500 μl) was removed from each tube and the cells were resuspended in the remaining 500 μl before FACS analysis on a FACSort analyzer (Becton Dickinson, San Jose, Calif.). Cell Quest was used for data acquisition and analysis. The data is reported as the mean of the channel of the fluorescence histogram obtained. Fluorescence output was calibrated with LinearFlow Green Flow cytometry Intensity Calibration Particles (Molecular Probes, Eugene, Oreg.).

Series [7] concerns IMR90 cells. The series is described as follows: Steady state level of oxidants in IMR90 cells, DCFH oxidation by FACS. Format: cell-based, human. The note with it: for DCFH, AFU/PDL (rate of DCFH oxidation per PDL): 100 μM, linear regression 26-50 PDLs; for Percent of decrease in the rate of oxidants formation from control: DCFH oxidation, continuous treatment. The protocol:
as §1
A general note: In flow cytometry, cells or beads pass a laser one at a time.

Series [8] in a line: in vivo. The note with it: male, C57BL/6J and DBA/2J, mouse, in vivo. The procedure: C57BL/6J and DBA/2J male mice (35-40 g) are tested for the acute lethal effects of adriamycin and the prevention of acute lethality by pretreatment doses of subject hydroxylamines. Mice are injected i.p with either saline or subject hydroxylamines 30 minutes prior to administration of adriamycin.

Series [9] in a line: Auto-oxidation in a cell free system. Format: physicochemical.
In series [10] the test system is IMR90 cells. The series can be described thus: Entry and concentration of N-t-butyl hydroxylamine in cells. Format: in vitro ADME, human.
The subject of series [11] is cytochrome c. The series is described as follows: Auto-oxidation of cyt c^II and direct reduction of cytochrome c by N-hydroxylamines. Format: biochemical. The protocol: In order to test the effect of N-hydroxylamines on the spontaneous oxidation of cytochrome c, a complete reduction of cyt c^III was achieved by incubating the X/XO system for 4-5 min at 25° C. Auto-oxidation of cyt c^II is associated with a decrease in absorbance at 550 nm. Reduced cytochrome c was incubated at 25° C. with or without 2 or 3 mM N-hydroxylamines and the auto-oxidation was followed by spectrophotometer. The rate of reduction of cytochrome c by different concentrations of each N-hydroxylamine was measured by the increase in absorbance at 550 nm.

For series [12] the following is noted: mice; cited from earlier work.

T1 sequence (P05067 672-711 limits assumed): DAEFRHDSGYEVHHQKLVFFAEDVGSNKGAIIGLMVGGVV

In the case of `CC1(C)CC(O)CC(C)(C)N1[O]` [Example 4-OH-TEMPO, 4-hydroxy-2,2,6,6-tetramethylpiperidine-1-oxyl], in [1], the “Delay of replicative senescence” value is listed as “did not delay the replicative senescence”. Moreover, in series [2], the “Delay of senescence of IMR90 cells (in words)” value (from here on “Delay … (in words)”) is reported as “none” and the “Toxicity to the cells” value is on record as “toxic”.

As to `ONC1CCCCC1` [Example 3, N-Cyclohexylhydroxylamine], the “Inhibition of Aβ(1-40) beta-pleated sheet formation” value in series [3] is reported as “inhibit”.

Regarding `ONCc1ccccc1` [NBHA, N-benzyl hydroxylamine], the “Delay … (in words)” value in [2] was “active; also recorded: able to delay the senescence”. Further, the H2O2-induced senescence entry in series [4] was “attenuated”. For the same molecule, in series [5], the GSH is 48.4 ± 3.4, the GSH/GSSG is given as 134.4, the GSSG is 0.36 ± 0.015 and the “Increase of the GSH/GSSG ratio” value amounted to 90.4%. Further, in series [6], the “Rho123, AFU/PDL (rate of Rho123 accumulation per PDL)” value was 9.7 (0.86) AFU/PDL and the “Decrease of the rate of Rho123 accumulation as a function of senescence” value (“Decrease of the rate … of senescence” for short) came to 69%. Moreover, in [7], the “DCFH, AFU/PDL (rate of DCFH oxidation per PDL)” value is listed as 0.11 (0.08) AFU/PDL and the “Percent of decrease in the rate of oxidants formation from control” value (shortened to “Percent of decrease”) worked out at 95%.

On to `CC(C)NO` [Example 1, N-Isopropylhydroxylamine], for which, in series [3], the “Inhibition of Aβ(1-40) beta-pleated sheet formation” value is “inhibit”.

In general, LD50 refers to the dose at which mortality reaches 50%. A higher LD50 goes with a less toxic substance. Take `COc1cccc2c1C(=O)c1c(O)c3c(c(O)c1C2=O)C[C@@](O)(C(=O)CO)C[C@@H]3O[C@H]1C[C@H](N)[C@H](O)[C@H](C)O1` [adriamycin]: in series [8], the “Acute lethality (dose range)” value lay within 10 to 30 mg/kg and the LD50 came to 25 mg/kg.

As for `CC(C)(C)N=O` [tNB, nitroso-tert-butane], in series [2] (10 μM in medium), the “Effect on IMR90 cells” value is “no effect”.

Take `CC(C)(C)NO` [NtBHA, N-t-butyl hydroxylamine]: in [2], the “Delay … (in words)” value is on record as “delays senescence”. Moreover, the “Gain in PDLs” value in series [2] (10 μM) turned out to be 5.8 PDLs. Moreover, in [2] (100 μM (added once per 7 days)), the “Gain in PDLs” value is listed as 19.7 PDLs. Moreover, in series [2] (vs PBN 200 μM), the “Concentration required to delay senescence (gain in PDLs), relative to PBN” value is recorded as 20 times lower. Moreover, the Stability to auto-oxidation result in [9] is reported as “stable to auto-oxidation”. Also, in series [10], the “Concentration in the cells” value was “approximately 5 fold” and the “Entry into the cells” value was “rapidly enters the cells”. Also, the H2O2-induced senescence result in [4] is reported as “attenuated”. Also, in series [5], the GSH is recorded as 49.5 ± 5.6, the GSH/GSSG is 123.8, the GSSG came out at 0.4 ± 0.045 and the “Increase of the GSH/GSSG ratio” value came to 75%. Further, in series [6], the “Rho123, AFU/PDL (rate of Rho123 accumulation per PDL)” value is recorded as 9.3 (0.85) AFU/PDL and the “Decrease of the rate … of senescence” value was 70%. Further, in series [7], the “DCFH, AFU/PDL (rate of DCFH oxidation per PDL)” value is listed as 0.27 (0.32) AFU/PDL and the “Percent of decrease” value is recorded as 88%. Besides, the “Direct reduction of cyt c^III to cyt c^II” value in [11] is “somewhat less efficient”.

Take `CNO` [NMHA, N-methyl hydroxylamine]: the “Delay … (in words)” value in [2] is recorded as “active; also recorded: able to delay the senescence”. Moreover, in [5], the GSH is given as 52.15 ± 6.7, the GSH/GSSG turned out to be 137.2, the GSSG was 0.38 ± 0.08 and the “Increase of the GSH/GSSG ratio” value is reported as 94%. Also, in series [6], the “Rho123, AFU/PDL (rate of Rho123 accumulation per PDL)” value is recorded as 15.3 (0.86) AFU/PDL and the “Decrease of the rate … of senescence” value is reported as 52%. In [7], the “DCFH, AFU/PDL (rate of DCFH oxidation per PDL)” value is on record as 0.45 (0.3) AFU/PDL and the “Percent of decrease” value turned out to be 79%.

`NO` [HNHOH, hydroxylamine]: in [12], the Anticancer activity entry is given as “possesses anticancer activity” and the Senescence entry was “delayed senescence”.

For catalase, the “Delay … (in words)” value in series [2] is reported as “none”.

Take vitamin E: the “Delay … (in words)” value in series [2] is on record as “none”.

Take `O=C1O[C@H]([C@@H](O)CO)C(O)=C1O` [ascorbic acid]: the “Delay … (in words)” value in [2] was “none”.

As for `NOCc1ccccc1` [O-benzyl hydroxylamine], the “Delay … (in words)” value in [2] is recorded as “accelerate senescence”.

Turning to `O=Cc1ccccc1` [benzaldehyde], the “Delay … (in words)” value was “without effect or toxic at high concentrations” in series [2]; “without effect and in high concentrations was toxic” in series [2] (listed as Benzaldehyde).

Take `CON` [O-methyl hydroxylamine]: the “Delay … (in words)” value in series [2] was “accelerate senescence”.

`CC1(C)CCCC(C)(C)N1[O]` [TEMPO, 2,2,6,6-tetramethyl-piperidine-1-oxyl]: the “Delay of replicative senescence” value in series [1] is “did not delay the replicative senescence”. For the same molecule, in series [2], the “Delay … (in words)” value is “none” and the “Toxicity to the cells” value is on record as “toxic”.

For `CC(C)(C)ON` [O-t-butyl hydroxylamine], the “Delay … (in words)” value in [2] is recorded as “accelerate senescence”.
